Assay results taken from patent US7964629B2, “Inhibitors of isoprenylcysteine carboxyl methyltransferase” (Duke Universtiy, priority 2005, dated 2011).

Columns and labels:
[1] = system: p42/44 MAPK phosphorylation in DKOB8 cells expressing GFP-Icmt; experiment: EGF-stimulated MAPK activation in Icmt-overexpressing cells; format: cell-based; details: 5 μM, three days, reduced-serum media; Icmt activity elevated 4-fold
Procedure: FIGS. 4A-4C. Overexpression of Icmt rescues EGF-stimulated MAPK activation and anchorage-independent growth in cysmethynil-treated cells. FIG. 4A. Creation of cell lines stably overexpressing Icmt. DKOB8 cells were engineered to stably express either GFP alone or a GFP-Icmt fusion protein. Membrane fractions from GFP and GFP-ICMT expressing lines were assayed for Icmt activity using the BFC assay. FIG. 4B. Overexpression of Icmt restores EGF-stimulated MAPK activation in cysmethynil-treated cells. […] Where indicated, cells were treated with EGF for the final 10 min prior to harvesting. Cell lysates containing equal amounts of protein were resolved on a 13% SDS-polyacrylamide gel and probed with antiphospho-p42/44 MAPK or, as a control, antiphospho NFκB antibody as indicated. FIG. 4C. […] After 3 weeks of growth, colonies were stained with MTT and imaged.
Half of the wells were then treated with EGF (10 ng/ml) and half with vehicle for 10 min. Cells were rinsed with PBS and harvested in SDS-PAGE loading buffer. Total cell lysates (30 μg protein) were resolved on 4-20% Tris-glycine polyacrylamide gels (Invitrogen). Proteins were transferred to nitrocellulose and probed with a mix of anti-phospho-Akt and anti-phospho-p42/44 MAPK antibodies, or with anti-tubulin or anti-phospho NFκB antibody (Cell Signaling Technology) as indicated. […]

Rce1 protease = target: T1, Rce1 protease (Homo sapiens, UniProt Q9Y256); experiment: Rce1 protease inhibition (results not shown); format: biochemical; details: concentrations up to 50 μM
T1 construct: made in house; host or cells: Sf9 insect cells; membranes
T1 sequence (Q9Y256 1-329): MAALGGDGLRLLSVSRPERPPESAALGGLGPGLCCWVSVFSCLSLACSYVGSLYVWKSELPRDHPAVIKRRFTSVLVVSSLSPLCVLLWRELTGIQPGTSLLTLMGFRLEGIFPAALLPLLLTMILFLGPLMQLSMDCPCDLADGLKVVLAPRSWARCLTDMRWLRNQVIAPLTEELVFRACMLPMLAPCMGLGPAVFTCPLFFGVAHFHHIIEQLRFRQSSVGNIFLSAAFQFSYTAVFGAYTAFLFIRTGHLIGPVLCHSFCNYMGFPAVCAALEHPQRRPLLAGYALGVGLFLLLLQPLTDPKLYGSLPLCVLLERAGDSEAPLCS

[2] = system: Icmt−/− mouse embryonic fibroblasts; experiment: Cell growth determination, Icmt-deficient fibroblasts; format: cell-based; details: 15, 20, 30 μM; 10% serum; six days
Procedure: FIGS. 2A-2C. […] Media and drug were replaced daily, and cell growth was monitored for six days. Data represent the mean and standard deviation of four replicate wells. (FIG. 2A) Icmt^+/+ cells; (FIG. 2B) Icmt^−/− cells; (C) Icmt^−/− cells stably transfected with a gene expressing human ICMT (Icmt^−/−/ICMT cells).
Cell growth assays were performed in a 96-well plate format. Briefly, 500 to 1000 cells were plated into 96-well plates. After the cells were allowed to attach for 24 h, media was removed and replaced with media containing either compound or vehicle. Media and drug were replaced every 24 h throughout the assay. Cell determinations were made at the times indicated in the respective figure by adding 19 μl of CellTiter 96 AqueousOne solution to each well followed by incubation of the plates in the dark at 37° C. for two hr after which the absorbance at 490 nm was read. Background absorbance from blank wells containing only media with compound or vehicle was subtracted from each test well. Typically, 3-6 replicate wells were employed for each point in each assay.

CCCCCCCCn1cc(CC(N)=O)c2cc(-c3cccc(C)c3)ccc21 [cysmethynil, 2-[5-(3-methylphenyl)-1-octyl-1H-indol-3-yl]acetamide]
blockade of EGF-stimulated MAPK activation [1]: protect the cells from cysmethynil blockade | inhibition of Rce1 protease (Rce1 protease): did not inhibit | cell growth [2]: largely unaffected
